Columns and labels:
Format in all cases: cell-based
[1] = tested on: normal human skeletal muscle myoblasts; experiment: Myotube differentiation promotion test (anti-MHC staining, differentiation index); settings: positive control 50 nmol/L, 3 days
Method: Using proliferation medium (SkGM-2, Lonza, CC-3245), normal human skeletal muscle myoblasts (Lonza, CC-2580) were seeded into a T-75 flask and cultured in a CO2 incubator until approximately 60% confluence. The cells were then detached from the T-75 flask using 0.05% trypsin-EDTA and phenol red. The detached cells were seeded into a 96-well plate at 7,500 cells/100 μL/well in proliferation medium and cultured in a CO2 incubator.
The next day, the medium was replaced with 100 μL of differentiation medium (2% horse serum-supplemented DMEM: F12) containing test substances 1 through 7 at final concentrations of 5% and 20% and the positive control substance at a final concentration of 50 nmol/L, or differentiation medium without test or positive control substances. The cells were then cultured for 3 days in a CO2 incubator to induce differentiation of myoblasts into myotubes.
Subsequently, the medium was removed from the wells, and 100 μL of 4% paraformaldehyde at 4° C. was added to each well, followed by incubation at 4° C. for 15 minutes to fix the cells. […]
From the captured images, the number of cell nuclei and the number of nuclei positive for myosin heavy chain were measured, and the differentiation index I (%) was calculated according to formula (1) below. […]

[2] = tested on: normal human umbilical vein endothelial cells; experiment: Prostacyclin production test (6-keto prostaglandin Fla ELISA); settings: positive control 10 μM, 24 hours
Method: Normal human umbilical vein endothelial cells (Lonza, CC2519AS) were seeded into a T-75 flask using medium (EGM-2, Lonza, CC-3162) and cultured in a CO2 incubator until 60% to 80% confluence. The cells were then detached from the T-75 flask using 0.05% trypsin-EDTA and phenol red. The detached cells were seeded into a 96-well plate at 10,000 cells/100 μL/well in medium and cultured in a CO2 incubator. The next day, the medium was replaced with 100 μL of medium containing test substances 1 through 7 at final concentrations of 5% and 20%, and the positive control substance at a final concentration of 10 μM, or medium without test or positive control substances. The cells were then cultured for 24 hours in a CO2 incubator. The culture supernatant was collected, and the amount of 6-keto prostaglandin Fla, a metabolite of prostacyclin, was measured using an ELISA kit (Abcam, ab133023) and a multi-spectral microplate reader (Varioskan Flash, Thermo Fisher Scientific).

[3] = tested on: adipocytes differentiated from normal human subcutaneous preadipocytes; experiment: Fat-decomposing assay (free glycerol in culture supernatant); settings: positive control 10 μM, 24 hours
Method: Normal human subcutaneous preadipocytes (Lonza, PT-5020) were seeded into a T-75 flask using a proliferation medium (PGM-2, 10% FBS, 2 mM L-glutamine, 50 μg/mL gentamicin, and 37 ng/mL amphotericin B-supplemented PBM, Lonza, PT-8002) and cultured in a CO2 incubator (37° C., 5% CO2, humidified) until they reached 60% to 80% confluence. The cells were then detached using 0.25% trypsin-EDTA and centrifuged. Subsequently, the cells were seeded into a 96-well plate at 10,000 cells/100 μL/well in proliferation medium and incubated in a CO2 incubator. The following day, the medium was replaced with 100 μL of differentiation medium (PGM-2 supplemented with insulin, dexamethasone, indomethacin, and isobutyl-methylxanthine; Lonza, PT-8002), and the cells were cultured for seven days to induce differentiation of preadipocytes into adipocytes. […] Thereafter, the culture supernatant was collected, and the amount of free glycerol in the supernatant was measured using a fat-decomposing assay kit (Cayman, 10009381). […] Specifically, a multi-spectral microplate reader (Varioskan Flash, Thermo Fisher Scientific) was used to measure the absorbance of the supernatant at a wavelength of 540 nm, and the relative concentration of free glycerol was calculated. […]

[4] = tested on: human chondrocyte cell line (SW1353); experiment: Hyaluronic acid production test (ELISA); settings: positive control 10 mmol/L
Method: Using proliferation medium (DMEM/F-12 supplemented with 10% FBS and 1% penicillin-streptomycin mixture), a human chondrocyte cell line (SW1353, ATCC, HTB-94) was seeded into a T-75 flask and cultured in a CO2 incubator until 60-80% confluency. The cells were then detached from the T-75 flask using 0.25% trypsin-EDTA and phenol red. Subsequently, using the proliferation medium, the human chondrocytes were seeded into a 96-well plate at a density of 10,000 cells/100 μL/well and cultured in a CO2 incubator.
The following day, the medium was replaced with 100 μL of assay medium (DMEM/F-12 supplemented with 1% FBS and 1% penicillin-streptomycin mixture), containing each of test substances 1 through 7 at final concentrations of 5% and 20% or a positive control substance at a final concentration of 10 mmol/L, or assay medium without test substances or positive control. The human chondrocytes were cultured in a CO2 incubator for 24 or 72 hours.
The culture supernatant was collected, and the amount of hyaluronic acid was measured using an ELISA kit (Hyaluronan Quantikine ELISA Kit, R&D Systems) and a multi-spectral microplate reader (Varioskan Flash, Thermo Fisher Scientific).

insulin
differentiation index to myotubes compared to the control [1]: significantly higher

CCCCC/C=C\C/C=C\C/C=C\C/C=C\CCCC(=O)O [arachidonic acid]
levels of 6-keto prostaglandin Fla compared to the control [2]: significantly higher

CC(C)NCC(O)c1ccc(O)c(O)c1 (centres unmarked) [isoproterenol]
amount of fat-decomposition (free glycerol) compared to the control [3]: significantly higher

CC(=O)N[C@H]1C(O)O[C@H](CO)[C@@H](O)[C@@H]1O (some centres unmarked) [N-acetylglucosamine]
hyaluronic acid production compared to the control ([4]; cultured 24 hours): significantly higher
hyaluronic acid production compared to the control ([4]; cultured 72 hours): significantly higher

From patent US20250127821A1, “PHARMACEUTICAL COMPOSITION AND COSMETIC COMPOSITION” (I Peace, Inc., priority 2023, published 2025)
